Assay results reported in patent US20030092616A1, “STAT6 activation gene” (priority 2001, published 2003).

Experiments:
STAT6 [1] = test: Screening compounds inhibiting promotion of STAT6 activity (STAT6 reporter activity); format: cell-based; conditions: 20 μM, mouse IL-4 1 ng/ml, 6 h; for inhibition of expression of the STAT6 reporter gene, control plasmid well: NIH3T3 cells with control plasmid pcDNA3.1 (+); for inhibition of expression of the STAT6 reporter gene (relative luciferase activity): NIH3T3 cells with plasmid for STAT6 activation-promoting protein of SEQ ID NO: 3, 17, 19, 218, 432 or 472, or nucleotide of SEQ ID NO: 64, FIGS. 1 to 7
Description: NIH3T3 cells were seeded on 10% FBS containing IMDM medium in a 96-well cell culture plate to a final cell density of 1×10^4 cells/100 μl/well, and cultured for 24 hours at 37° C. in the presence of 5% CO2. Then, 30 ng of the plasmid containing the nucleotide encoding the STAT6 activation-promoting protein of SEQ ID NO: 3, 17, 19, 218, 432 or 472, or the nucleotide of SEQ ID NO: 64, and 100 ng of the luciferase reporter plasmid having the STAT6 response sequence were cotransfected into the cells in a well using FuGENE 6. […] After 30 min of culture at 37° C., followed by 6 hours of culture with addition of mouse IL-4 to a final concentration of 1 ng/ml, the reporter activity was measured using PIKKA GENE LT2.0.

STAT6 [2] = test: Screening of full-length cDNA clones for promotion of STAT6 activation (luciferase reporter N4×8-luc); format: cell-based; conditions: NIH3T3 cells cotransfected with N4×8-luc reporter and cDNA plasmid; 48 h culture, then mouse IL-4 0.5 ng/ml for 6 h
Summary of the method: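 NIH3T3 cells cotransfected with STAT6-responsive N4×8-luc reporter (100 ng) and full-length cDNA, cultured 48 h, then given mouse IL-4 at 0.5 ng/ml final for 6 h. Luciferase activity compared with reporter plus null-vector control.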

| Molecule | inhibition of expression of the STAT6 reporter gene, control plasmid well (STAT6 [1]) | inhibition of expression of the STAT6 reporter gene (relative luciferase activity) (STAT6 [1]) | Activity = (luciferase activity of the gene of each SEQ ID NO:)/(luciferase activity of pME18S-FL3) (STAT6 [2]) |
| --- | --- | --- | --- |
| N#CC(C#N)=Cc1ccc(O)c(O)c1 [AG18] | no expression was inhibited at all | inhibited | – |
| N#C/C(=C/c1ccc(O)c(O)c1)C(=O)NCc1ccccc1 [AG490] | no expression was inhibited at all | inhibited | – |
| 481 (nucleic acid, listed as Homo sapiens, CDS (112)..(1224)) GAAAGAGCCGAGTGGGCTCGAGGCCGACGCGACCATCGTTTGTCGACGCCGCTGCCACCGCCTGCCTGAGAGAAGTCGTCGCGGCCGACCCCGTCGCCTCCGCCGGCTACCATGTCCGCCCAGGCGCAGATGCGGGCCCTGCTGGACCAGCTCATGGGCACGGCTCGGGACGGAGACGAAACCAGACAGAGGGTCAAGTTTACAGATGACCGTGTCTGCAAGAGTCACCTTCTGGACTGCTGCCCCCATGACATCCTGGCTGGGACGCGCATGGATTTAGGAGAATGTACCAAAATCCACGACTTGGCCCTCCGAGCAGATTATGAGATTGCAAGTAAAGAAAGAGACCTGTTTTTTGAATTAGATGCAATGGATCACTTGGAGTCCTTTATTGCTGAATGTGATCGGAGAACTGAGCTCGCCAAGAAGCGGCTGGCAGAAACACAGGAGGAAATCAGTGCGGAAGTTTCTGCAAAGGCAGAAAAAGTACATGAGTTAAATGAAGAAATAGGAAAACTCCTTGCTAAAGCCGAACAGCTAGGGGCTGAAGGTAATGTGGATGAATCCCAGAAGATTCTTATGGAAGTGGAAAAAGTTCGTGCGAAGAAAAAAGAAGCTGAGGAAGAATACAGAAATTCCATGCCTGCATCCAGTTTTCAGCAGCAAAAGCTGCGTGTCTGCGAGGTCTGTTCAGCCTACCTTGGTCTCCATGACAATGACCGTCGCCTGGCAGACCACTTCGGTGGCAAGTTACACTTGGGGTTCATTCAGATCCGAGAGAAGCTTGATCAGTTGAGGAAAACTGTCGCTGAAAAGCAGGAGAAGAGAAATCAGGATCGCTTGAGGAGGAGAGAGGAGAGGGAACGGGAGGAGCGTCTGAGCAGGAGGTCGGGATCAAGAACCAGAGATCGCAGGAGGTCACGCTCCCGGGATCGGCGTCGGAGGCGGTCAAGATCTACCTCCCGAGAGCGACGGAAATTGTCCCGGTCCCGGTCCCGAGATAGACATCGGCGCCACCGCAGCCGTTCCCGGAGCCACAGCCGGGGACATCGTCGGGCTTCCCGGGACCGAAGTGCGAAATACAAGTTCTCCAGAGAGCGGGCATCCAGAGAGGAGTCCTGGGAGAGCGGGCGGAGCGAGCGAGGGCCCCCGGACTGGAGGCTTGAGAGCTCCAACGGGAAGATGGCTTCACGGAGGTCAGAAGAGAAGGAGGCCGGCGAGATCTGAACCCGTCTCCCGGGTGCTGTAAATAGTCTGATAAACGTTCACACAGTCTAAAATTACCCTTTATATTTGCTGAATACAACTCATCTTTTGTAGTTTAAAATTTCTATTGTTTTGGAGCTAGCTGTGAGTTTCTAGAAGTGTACAGAGTTGCTCCTGTGTTCCCGGGTCATGTTGAGTAGGAATAAATAAATCTGATGCTGCCTCCTGAGGCTGCGGGGGGTTT | – | – | 6.4 |
